Source: the NIST ThermoML archive (doi:10.1016/j.jct.2013.09.020)

Conditions: Liquid, Calculated from knudsen effusion weight loss

Cn1cc[n+](C)c1.O=S(=O)([N-]S(=O)(=O)C(F)(F)F)C(F)(F)F [1,3-dimethylimidazolium bis((trifluoromethyl)sulfonyl)amide]
Conditions | vapor or sublimation pressure [kPa]
475.62 K | 4.15e-05
477.6 K | 4.7e-05
479.6 K | 5.33e-05
481.59 K | 6.01e-05
483.59 K | 6.78e-05
485.6 K | 7.63e-05
487.6 K | 8.56e-05
489.62 K | 9.57e-05
491.67 K | 0.0001095
493.68 K | 0.0001225

CCC[n+]1ccn(CC)c1.O=S(=O)([N-]S(=O)(=O)C(F)(F)F)C(F)(F)F
Conditions | vapor or sublimation pressure [kPa]
463.58 K | 4.86e-05
465.61 K | 5.55e-05
467.59 K | 6.29e-05
469.6 K | 7.12e-05
471.62 K | 8.07e-05
473.62 K | 9.11e-05
475.62 K | 0.0001034
477.63 K | 0.0001172
479.56 K | 0.0001311
481.58 K | 0.0001487
483.6 K | 0.0001651
485.61 K | 0.0001872
487.62 K | 0.0002112
489.62 K | 0.0002364
